Data taken from paper PMC11374673, “Discovery of isoquinoline sulfonamides as allosteric gyrase inhibitors with activity against fluoroquinolone-resistant bacteria” (Nature Chemistry, 2024).
Several values for one entry are separate records, joined by “and”; a condition that tells them apart may be missing. Equal entries are not always repeated.

Assays:
E. coli = test: Checkerboard assay LEI-800 with CIP; assay type: cell-based, Escherichia coli;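 note: bacterial growth read as OD600 after 20 h at 37 °C with shaking, each drug pair tested in triplicate wells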
E. coli DNA gyrase = target: T1, E. coli DNA gyrase (Escherichia coli, UniProt P0AES4); test: Gyrase supercoiling inhibition, gel-based; assay type: biochemical
T1 construct: purchased Inspiralis Limited
T1 sequence (P0AES4 whole entry): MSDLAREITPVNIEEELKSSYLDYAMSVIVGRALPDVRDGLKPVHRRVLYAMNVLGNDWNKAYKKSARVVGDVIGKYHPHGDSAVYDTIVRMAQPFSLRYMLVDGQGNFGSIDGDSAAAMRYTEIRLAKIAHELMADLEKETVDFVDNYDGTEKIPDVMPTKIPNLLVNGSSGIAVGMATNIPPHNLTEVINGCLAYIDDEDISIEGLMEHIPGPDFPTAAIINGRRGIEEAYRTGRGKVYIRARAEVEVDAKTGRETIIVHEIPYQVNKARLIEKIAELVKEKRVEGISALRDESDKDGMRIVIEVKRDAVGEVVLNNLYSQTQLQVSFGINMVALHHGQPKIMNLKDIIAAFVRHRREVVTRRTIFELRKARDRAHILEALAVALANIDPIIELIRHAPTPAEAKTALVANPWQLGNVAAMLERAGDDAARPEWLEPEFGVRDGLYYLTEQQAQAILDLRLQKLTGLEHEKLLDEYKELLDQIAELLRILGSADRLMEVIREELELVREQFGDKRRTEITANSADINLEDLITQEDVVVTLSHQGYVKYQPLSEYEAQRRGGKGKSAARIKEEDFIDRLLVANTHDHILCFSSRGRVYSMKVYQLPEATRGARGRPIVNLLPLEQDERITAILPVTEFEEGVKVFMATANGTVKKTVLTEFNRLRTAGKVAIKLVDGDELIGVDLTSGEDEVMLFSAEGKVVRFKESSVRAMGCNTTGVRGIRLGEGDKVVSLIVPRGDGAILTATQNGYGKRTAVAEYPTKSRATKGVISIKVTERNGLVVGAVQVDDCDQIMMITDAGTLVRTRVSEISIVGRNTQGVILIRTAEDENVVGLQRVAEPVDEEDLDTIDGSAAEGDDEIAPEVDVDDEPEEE
Method: Of this stock solution, 27 µl was aliquoted for each reaction in 1.5 ml Eppendorf tubes and supplemented with 0.6 µl of the appropriate compound dilution or corresponding solvent with a final DMSO concentration of 2%. The reactions were started with 3 µl of enzyme (1 U for WT gyrase retrieved from Inspiralis Limited or 25–30 nM gyrase variants purified in house) in dilution buffer (50 mM Tris–HCl (pH 7.5), 100 mM KCl, 2 mM DTT, 1 mM EDTA and 50% (wt/vol) glycerol) for a final volume of 30 µl. Reactions were run at 37 °C for 30 min and stopped with the addition of 30 µl STEB buffer (40% (wt/vol) sucrose, 100 mM Tris–HCl pH 8, 100 mM EDTA, 0.5 mg ml^−1 bromophenol blue) and 30 µl of a chloroform:isoamyl alcohol solution (24:1 vol/vol). After brief vortexing and centrifugation at 2,300g for 1 min, 20 µl of the aqueous phase was loaded onto 1% (wt/vol) agarose gels in TAE ([…]) gel. The gels were run at 85 V for 2 h followed by staining (15 min) in 1 µg ml^−1 ethidium bromide and destaining (5–10 min) in water. […] IC50 curves were generated in GraphPad Prism (v9.0.0) using the non-linear regression curve fit variable slope with four parameters and least squares regression. A. baumannii and P. aeruginosa gyrase supercoiling inhibition assays were set up in the same way as E. coli gyrase supercoiling assays. The enzyme was retrieved from Inspiralis Ltd. (PAG1001 and ABG1001) and tested in-house for activity with ×5 U enzyme used for each reaction.

[1] = Ciprofloxacin 0.78125 nM + LEI-800 0 µM
[2] = Ciprofloxacin 0.78125 nM + LEI-800 0.1 µM
[3] = Ciprofloxacin 0.78125 nM + LEI-800 0.2 µM
[4] = Ciprofloxacin 0.78125 nM + LEI-800 0.4 µM
[5] = Ciprofloxacin 0.78125 nM + LEI-800 0.8 µM
[6] = Ciprofloxacin 0.78125 nM + LEI-800 3.1 µM
[7] = Ciprofloxacin 0.78125 nM + LEI-800 6.2 µM
[8] = Ciprofloxacin 1.5625 nM + LEI-800 0 µM
[9] = Ciprofloxacin 1.5625 nM + LEI-800 0.1 µM
[10] = Ciprofloxacin 1.5625 nM + LEI-800 0.2 µM
[11] = Ciprofloxacin 1.5625 nM + LEI-800 0.4 µM
[12] = Ciprofloxacin 1.5625 nM + LEI-800 0.8 µM
[13] = Ciprofloxacin 1.5625 nM + LEI-800 3.1 µM
[14] = Ciprofloxacin 1.5625 nM + LEI-800 6.2 µM
[15] = Ciprofloxacin 12.5 nM + LEI-800 0.2 µM
[16] = Ciprofloxacin 12.5 nM + LEI-800 0.4 µM
[17] = Ciprofloxacin 25 nM + LEI-800 0 µM
[18] = Ciprofloxacin 25 nM + LEI-800 0.1 µM
[19] = Ciprofloxacin 25 nM + LEI-800 0.2 µM
[20] = Ciprofloxacin 25 nM + LEI-800 0.4 µM
[21] = Ciprofloxacin 25 nM + LEI-800 0.8 µM
[22] = Ciprofloxacin 25 nM + LEI-800 3.1 µM
[23] = Ciprofloxacin 25 nM + LEI-800 6.2 µM
[24] = Ciprofloxacin 50 nM + LEI-800 0 µM
[25] = Ciprofloxacin 50 nM + LEI-800 0.1 µM
[26] = Ciprofloxacin 50 nM + LEI-800 0.2 µM
[27] = Ciprofloxacin 50 nM + LEI-800 0.4 µM
[28] = Ciprofloxacin 50 nM + LEI-800 0.8 µM
[29] = Ciprofloxacin 50 nM + LEI-800 3.1 µM
[30] = Ciprofloxacin 50 nM + LEI-800 6.2 µM

O=C(O)c1cn(C2CC2)c2cc(N3CCNCC3)c(F)cc2c1=O [CIP, ciprofloxacin]
checkerboard plate reading, Average values (E. coli; [1]): 0.83 | checkerboard plate reading, replicate wells (E. coli; [1]): 0.8643 and 0.836 and 0.7898 | checkerboard plate reading, Average values (E. coli; [2]): 0.7281 | checkerboard plate reading, replicate wells (E. coli; [2]): 0.7059 and 0.7562 and 0.7221 | checkerboard plate reading, Average values (E. coli; [3]): 0.6917 | checkerboard plate reading, replicate wells (E. coli; [3]): 0.6798 and 0.723 and 0.6723 | checkerboard plate reading, Average values (E. coli; [4]): 0.6669 | checkerboard plate reading, replicate wells (E. coli; [4]): 0.6638 and 0.6554 and 0.6815 | checkerboard plate reading, Average values (E. coli; [5]): 0.5857 | checkerboard plate reading, replicate wells (E. coli; [5]): 0.6064 and 0.5755 and 0.5753 | checkerboard plate reading, Average values (E. coli; [6]): 0.2755 | checkerboard plate reading, replicate wells (E. coli; [6]): 0.2688 and 0.2609 and 0.2967 | checkerboard plate reading, Average values (E. coli; [7]): 0.1492 | checkerboard plate reading, replicate wells (E. coli; [7]): 0.1443 and 0.151 and 0.1523 | checkerboard plate reading, Average values (E. coli; Ciprofloxacin 0.78125 nM + LEI-800 […]): 0.4707 | checkerboard plate reading, Average values (E. coli; [8]): 0.8174 | checkerboard plate reading, replicate wells (E. coli; [8]): 0.9018 and 0.7912 and 0.7592 | checkerboard plate reading, Average values (E. coli; [9]): 0.71 | checkerboard plate reading, replicate wells (E. coli; [9]): 0.7109 and 0.704 and 0.715 | checkerboard plate reading, Average values (E. coli; [10]): 0.6776 | checkerboard plate reading, replicate wells (E. coli; [10]): 0.667 and 0.7085 and 0.6572 | checkerboard plate reading, Average values (E. coli; [11]): 0.6371 | checkerboard plate reading, replicate wells (E. coli; [11]): 0.6099 and 0.644 and 0.6575 | checkerboard plate reading, Average values (E. coli; [12]): 0.5615 | checkerboard plate reading, replicate wells (E. coli; [12]): 0.5364 and 0.5772 and 0.571 | checkerboard plate reading, Average values (E. coli; [13]): 0.2706 | checkerboard plate reading, replicate wells (E. coli; [13]): 0.2674 and 0.2638 and 0.2807 | checkerboard plate reading, Average values (E. coli; [14]): 0.1458 | checkerboard plate reading, replicate wells (E. coli; [14]): 0.1385 and 0.1476 and 0.1513 | checkerboard plate reading, Average values (E. coli; Ciprofloxacin 1.5625 nM + LEI-800 […]): 0.4578 | checkerboard plate reading, Average values (E. coli; Ciprofloxacin 3.125 nM + LEI-800 0 µM): 0.7916 | checkerboard plate reading, Average values (E. coli; Ciprofloxacin 3.125 nM + LEI-800 0.1 µM): 0.7539 | checkerboard plate reading, Average values (E. coli; Ciprofloxacin 3.125 nM + LEI-800 0.2 µM): 0.6934 | checkerboard plate reading, Average values (E. coli; Ciprofloxacin 3.125 nM + LEI-800 0.4 µM): 0.6265 | checkerboard plate reading, Average values (E. coli; Ciprofloxacin 3.125 nM + LEI-800 0.8 µM): 0.5829 | checkerboard plate reading, Average values (E. coli; Ciprofloxacin 3.125 nM + LEI-800 3.1 µM): 0.2713 | checkerboard plate reading, Average values (E. coli; Ciprofloxacin 3.125 nM + LEI-800 6.2 µM): 0.1411 | checkerboard plate reading, Average values (E. coli; Ciprofloxacin 3.125 nM + LEI-800 […]): 0.464 | checkerboard plate reading, Average values (E. coli; Ciprofloxacin 6.25 nM + LEI-800 0 µM): 0.8039 | checkerboard plate reading, Average values (E. coli; Ciprofloxacin 6.25 nM + LEI-800 0.1 µM): 0.6899 | checkerboard plate reading, Average values (E. coli; Ciprofloxacin 6.25 nM + LEI-800 0.2 µM): 0.6258 | checkerboard plate reading, Average values (E. coli; Ciprofloxacin 6.25 nM + LEI-800 0.4 µM): 0.6515 | checkerboard plate reading, Average values (E. coli; Ciprofloxacin 6.25 nM + LEI-800 0.8 µM): 0.573 | checkerboard plate reading, Average values (E. coli; Ciprofloxacin 6.25 nM + LEI-800 3.1 µM): 0.2841 | checkerboard plate reading, Average values (E. coli; Ciprofloxacin 6.25 nM + LEI-800 6.2 µM): 0.1541 | checkerboard plate reading, Average values (E. coli; Ciprofloxacin 6.25 nM + LEI-800 […]): 0.4469 | checkerboard plate reading, Average values (E. coli; Ciprofloxacin 12.5 nM + LEI-800 0 µM): 0.8165 | checkerboard plate reading, Average values (E. coli; Ciprofloxacin 12.5 nM + LEI-800 0.1 µM): 0.6889 | checkerboard plate reading, Average values (E. coli; [15]): 0.6272 | checkerboard plate reading, replicate wells (E. coli; [15]): 0.6163 | checkerboard plate reading, Average values (E. coli; [16]): 0.6342 | checkerboard plate reading, replicate wells (E. coli; [16]): 0.6092 and 0.6266 and 0.6669 | checkerboard plate reading, Average values (E. coli; Ciprofloxacin 12.5 nM + LEI-800 0.8 µM): 0.6048 | checkerboard plate reading, Average values (E. coli; Ciprofloxacin 12.5 nM + LEI-800 3.1 µM): 0.2553 | checkerboard plate reading, Average values (E. coli; Ciprofloxacin 12.5 nM + LEI-800 6.2 µM): 0.142 | checkerboard plate reading, Average values (E. coli; Ciprofloxacin 12.5 nM + LEI-800 […]): 0.4663 | checkerboard plate reading, Average values (E. coli; [17]): 0.8434 | checkerboard plate reading, replicate wells (E. coli; [17]): 0.9002 and 0.8407 and 0.7891 | checkerboard plate reading, Average values (E. coli; [18]): 0.7231 | checkerboard plate reading, replicate wells (E. coli; [18]): 0.7425 and 0.7229 and 0.7038 | checkerboard plate reading, Average values (E. coli; [19]): 0.6746 | checkerboard plate reading, replicate wells (E. coli; [19]): 0.7088 and 0.6616 and 0.6533 | checkerboard plate reading, Average values (E. coli; [20]): 0.6549 | checkerboard plate reading, replicate wells (E. coli; [20]): 0.6481 and 0.6316 and 0.685 | checkerboard plate reading, Average values (E. coli; [21]): 0.6861 | checkerboard plate reading, replicate wells (E. coli; [21]): 0.7976 and 0.6273 and 0.6333 | checkerboard plate reading, Average values (E. coli; [22]): 0.2871 | checkerboard plate reading, replicate wells (E. coli; [22]): 0.2705 and 0.2575 and 0.3334 | checkerboard plate reading, Average values (E. coli; [23]): 0.1517 | checkerboard plate reading, replicate wells (E. coli; [23]): 0.149 and 0.1483 and 0.1579 | checkerboard plate reading, Average values (E. coli; Ciprofloxacin 25 nM + LEI-800 […]): 0.5325 | checkerboard plate reading, Average values (E. coli; [24]): 0.8946 | checkerboard plate reading, replicate wells (E. coli; [24]): 0.9376 and 0.8747 and 0.8715 | checkerboard plate reading, Average values (E. coli; [25]): 0.7443 | checkerboard plate reading, replicate wells (E. coli; [25]): 0.7759 and 0.7241 and 0.7328 | checkerboard plate reading, Average values (E. coli; [26]): 0.6725 | checkerboard plate reading, replicate wells (E. coli; [26]): 0.6624 and 0.6684 and 0.6868 | checkerboard plate reading, Average values (E. coli; [27]): 0.6531 | checkerboard plate reading, replicate wells (E. coli; [27]): 0.6441 and 0.64 and 0.6751 | checkerboard plate reading, Average values (E. coli; [28]): 0.7311 | checkerboard plate reading, replicate wells (E. coli; [28]): 0.701 and 0.7232 and 0.7691 | checkerboard plate reading, Average values (E. coli; [29]): 0.2841 | checkerboard plate reading, replicate wells (E. coli; [29]): 0.2522 and 0.2675 and 0.3325 | checkerboard plate reading, Average values (E. coli; [30]): 0.151 | checkerboard plate reading, replicate wells (E. coli; [30]): 0.1483 and 0.1495 and 0.1553 | checkerboard plate reading, Average values (E. coli; Ciprofloxacin 50 nM + LEI-800 […]): 0.6545

O=S(=O)(NC[C@H]1CC[C@@H](c2ccc(-c3ccc(F)nc3)cc2)N1)c1cccc2cnccc12 [LEI-801]
IC50 (E. coli DNA gyrase): 440 nM | fold less potent than LEI-800 (E. coli DNA gyrase; supercoiling IC50 ratio): 13 fold
